Here are results for 48 compounds from PubChem BioAssay AID179 (DTP/NCI, 2004).

In the experiment the test system is CEM cells HIV-1 protection, formazan growth assay. Description: NCI AIDS Antiviral Assay. The conditions noted are these: for IC50: measured here: growth of uninfected CEM cells. The method in brief:
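Human CEM cells, uninfected and HIV-1-infected, received five drug concentrations, and growth was read by soluble formazan assay. Compounds giving at least 50% protection were retested; reproducible 100% protection defined confirmed active.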

Where “and” joins values, the source holds several entries; their conditions need not be identical. Equal values may be shown once. Calls of active or inactive are those of the source.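 How the source made its calls: active means compounds giving half or more protection of infected cells from virus-caused growth loss, again on retest; inactive means the rest.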

For `Clc1nc(Cl)nc(Nc2ncccn2)n1`, the EC50 was more than 200 µM and the IC50 was more than 200 µM.
Regarding `O=C(O)c1ccc(NNc2cc(=O)[nH]c(=O)[nH]2)cc1`, the EC50 was more than 200 µM and the half-inhibitory concentration (IC50) was 107 µM.
On to `Cn1cc(NC(=O)Nc2cc(C(=O)Nc3cc(C(=O)Nc4ccc5cc(S(=O)(=O)O)cc(S(=O)(=O)O)c5c4)n(C)n3)n(C)c2)cc1C(=O)Nc1cc(C(=O)Nc2ccc3cc(S(=O)(=O)O)cc(S(=O)(=O)O)c3c2)n(C)n1`, for which the half-maximal effective concentration (EC50) is 5.5 µM and the IC50 was more than 100 µM.
Consider `O=S(=O)(CSc1ccccc1)c1ccccc1`, for which the EC50 is more than 490 µM and the 50% inhibitory concentration (IC50) came to 288 µM.
Taken in the same sequence, the figures for `CCOc1ccc2nc(NC(=O)C(=O)C(C#N)CC(C)(C)C=O)sc2c1` (stereo not drawn) were more than 479 µM and 263 µM.
For the compound `CS(=O)(=O)OC1C(COC(=O)c2ccccc2)OC2C1Oc1nc(=O)ccn12` (stereo not drawn), the EC50 is more than 200 µM and the 50% inhibitory concentration (IC50) was more than 200 µM.
With `Cc1nc(N2N=C(c3ccc(Cl)cc3)CCC2=O)sc1[N+](=O)[O-]`, the EC50 was more than 74.1 µM and the IC50 came out at 32.4 µM.
The matching figures for `Cc1cc(N=C2C=C(Br)C(=O)C(Br)=C2)cc(CN(CC(=O)O)CC(=O)O)c1O`: more than 45.7 µM and 0.501 µM.
With `CC(=O)OC1C(=O)C(O)C(C)OC1O[C@@H]1C[C@@]2(C)[C@@H]3CC=C4[C@@H](C[C@H](O)C(=O)C4(C)C)[C@]3(C)C(=O)C[C@]2(C)[C@H]1[C@@](C)(O)C(=O)/C=C/C(C)(C)O` (stereo partly drawn), the EC50 was more than 0.501 µM and the half-inhibitory concentration (IC50) was determined as 0.0832 µM.
Turning to `O=[N+]([O-])c1ccc(Cl)cc1C=NC12CC3CC(CC(C3)C1)C2`, the EC50 is more than 200 µM and the IC50 was 11.5 µM.
As for `CN(C)C1C(=O)C(C(=O)NCNC(C=O)C(O)C(O)C(O)CO)=C(O)C2(O)C(=O)C3=C(O)c4c(O)cccc4C(C)(O)C3CC12` (stereo not drawn), the EC50 is more than 178 µM and the IC50 is 110 µM.
Turning to `COC(=O)c1c2c(cc3c1CC1(C3)Cc3cc4c(c(C(=O)OC)c3C1)CCC4)CCC2`, the EC50 was more than 200 µM and the concentration for half-maximal inhibition (IC50) is more than 200 µM.
As to `CCCC1(N2C(=O)c3ccc4c5c(ccc(c35)C2=O)N(C2(CCC)CCCCC2)C4=O)CCCCC1`, the EC50 was more than 100 µM and the IC50 is more than 100 µM.
On to `O=c1cccc2n1C[C@H]1C[C@@H]2CN2CCCC[C@H]12`, for which the EC50 is more than 200 µM and the IC50 was more than 200 µM.
For the compound `CCC(=O)C1=C(OC(C)=O)C2Cc3c(n(C)c4ccccc34)C(C1)N2C` (stereo not drawn), the result was inactive.
With `CC1(c2nc3ccccc3[nH]2)CCC(C(=O)O)C(C)(C)O1` (stereo not drawn), the EC50 is more than 200 µM and the IC50 came out at 151 µM.
For the compound `COC(=O)C1=C(C)NC2=C(C(=O)CCC2)C1CCS(C)=O` (stereo not drawn), the EC50 was more than 200 µM and the IC50 was more than 200 µM.
For the compound `Cc1cc(C)nc(NS(=O)(=O)c2ccc(NC(=O)c3cccc4c(N)c5ccccc5nc34)cc2)n1`, the EC50 was more than 44.7 µM and the IC50 was more than 44.7 µM.
With `CCCCN1C(=O)[C@](O)(NC(C)=O)[C@H]1COC(C)(C)C`, the EC50 is more than 43.7 µM and the half-inhibitory concentration (IC50) was more than 43.7 µM.
As to `Cc1ccc(N(C)S(=O)(=O)c2ccc([N+](=O)[O-])cc2)cc1`, the EC50 is more than 200 µM and the IC50 was determined as 178 µM.
`CC(=O)OC1C[C@@]2(C)C(CC[C@@H]2C(C)=O)[C@@H]2CC=C3C[C@@H](O)CC[C@]3(C)C12` (stereo partly drawn): the result was inactive.
In the case of `COc1cc(/C=C/C(=O)c2ccc(O)c(OC)c2)ccc1O`, the EC50 was more than 200 µM and the IC50 is 11.5 µM.
As to `COc1ccc(-c2cn3c(nc4ccccc43)c(C)n2)cc1`, the EC50 was more than 200 µM and the IC50 is more than 200 µM.
`CC1N=C(SCC(=O)c2ccc(F)cc2)N2C(C)N=C(SCC(=O)c3ccc(F)cc3)N12` (stereo not drawn): the EC50 is more than 75.9 µM and the concentration for half-maximal inhibition (IC50) is more than 75.9 µM.
As to `C/C(=C(/C)c1ccc(O)cc1)c1ccc(O)cc1`, the EC50 is more than 200 µM and the IC50 was 52.5 µM.
For `NC(=S)/N=C/C1=C(O)CCCC1=O`, the EC50 is more than 200 µM and the IC50 is more than 200 µM.
Take `Cc1ccc(NC(=O)c2[nH]c(=S)nc(N)c2-c2ccccc2C)cc1C`: the EC50 was more than 692 µM and the IC50 is more than 692 µM.
On to `COc1cccc(/C=C2\C(=O)N(C(=O)Cc3ccccc3)N=C2C)c1`, for which the EC50 is more than 15.5 µM and the IC50 was more than 15.5 µM.
For the compound `O=C(CN1CCOCC1)c1ccc2c(c1)oc(=O)n2CCN1CCOCC1`, the EC50 is more than 200 µM and the IC50 is more than 200 µM.
As for `COc1ccc2[nH]cc([C@@H]3C4CCC(C4)[C@H]3NCc3cccc(CN[C@H]4C5CCC(C5)[C@@H]4c4c[nH]c5ccc(OC)cc45)c3)c2c1`, the EC50 was more than 2 µM; the half-inhibitory concentration (IC50) is 0.324 µM and 0.617 µM.
As for `Cc1ccc(S(=O)(=O)OC2C(O)C(CO)OC2n2c(Br)c(C(N)=O)c3c(N)ncnc32)cc1` (stereo not drawn), the EC50 was more than 200 µM and the IC50 is more than 200 µM.
`CCc1cccc(CC)c1NC(=S)NC(=O)c1ccc(Br)cc1`: the EC50 was more than 18.2 µM and the half-inhibitory concentration (IC50) was more than 18.2 µM.
With `CC1N=C(c2ccccc2)OC1=O` (stereo not drawn), the EC50 was more than 200 µM and the IC50 is more than 200 µM.
Regarding `C#CC1(O)CCCCCCCCC2(CCCCCCCC1)OCCO2`, the EC50 was more than 200 µM and the half-inhibitory concentration (IC50) came to 25.7 µM.
Taken in the same sequence, the figures for `CCOC(=O)NCC(OS(C)(=O)=O)C(CNC(=O)OCC)OS(C)(=O)=O` (stereo not drawn) were more than 120 µM and more than 120 µM.
Taken in the same sequence, the figures for `NNc1c(C(N)=O)c2c(N)ncnc2n1C1OC(CO)C(O)C1O` (stereo not drawn) were more than 0.2 µM and 0.00912 µM.
The matching figures for `COCCn1cnc2c(Cl)nc(Nc3ccccc3)nc21`: more than 200 µM and 28.8 µM.
As to `COc1c(Br)c(=O)n(C)c(=O)n1C`, the EC50 was more than 200 µM and the 50% inhibitory concentration (IC50) was more than 200 µM.
Turning to `O=[N+]([O-])c1ccc(Oc2ccc(S(=O)(=O)c3ccc(Oc4ccc([N+](=O)[O-])cc4)c([N+](=O)[O-])c3)cc2[N+](=O)[O-])cc1`, the EC50 was more than 200 µM and the concentration for half-maximal inhibition (IC50) is more than 200 µM.
With `N#CCCN(C1=NN(C(=O)CC(=O)Nc2ccccc2Cl)C(c2ccccc2)C1)c1ccc(Cl)cc1` (stereo not drawn), the EC50 was more than 3.89 µM and the IC50 is more than 3.89 µM.
On to `NS(=O)(=O)c1ccc(NC(=O)Nc2ccc(F)cc2)cc1`, for which the EC50 is more than 200 µM and the IC50 is 74.1 µM.
The matching figures for `COc1cc2c(cc1OC)C(=O)N1CCCC1CS2` (stereo not drawn): more than 200 µM and more than 200 µM.
In the case of `Cc1ccc2cc(NC(=O)CN)c3ccc(C)nc3c2n1.Cc1ccc2cc(NC(=O)CN)c3ccc(C)nc3c2n1.O=C1OC(C(O)C[O-])C(O)=C1O.[Cu+]`, the EC50 was more than 12.6 µM and the concentration for half-maximal inhibition (IC50) was 0.562 µM.
For the compound `CC1=NN(c2ccccc2)C(=O)C1N=Nc1ccc(S(=O)(=O)Nc2ccccn2)cc1` (stereo not drawn), the outcome was inactive.
In the case of `O=C1C(CN2CCCCC2)CCCC1CN1CCCCC1` (stereo not drawn), the EC50 is more than 550 µM, the result was inactive and the concentration for half-maximal inhibition (IC50) is 6.17 µM.
Consider `COc1ccc(-c2ccc(CC(=O)O)cc2)cc1OC`, for which the EC50 is more than 36.3 µM and the IC50 is more than 36.3 µM.
For the compound `C=C1CC2OC2(C(=O)O[C@H]2CCC3[C@@H]4CCC5=CC(=O)CC[C@]5(C)C4CC[C@@]32C)C1=O` (stereo partly drawn), the EC50 is more than 200 µM and the half-inhibitory concentration (IC50) is 7.24 µM.
For `COc1ccc2c3c([nH]c2c1[N+](=O)[O-])C(C)N(C)CC3` (stereo not drawn), the result was inactive.

Broadly, the EC50 is the midpoint of the concentration-response curve. The IC50 is the midpoint of a concentration-inhibition curve.
